According to patent EP1801111A1, “Novel polymorph forms of olmesartan medoxomil” (LEK Pharmaceuticals d.d., priority 2005, dated 2007):

Columns and labels:
[1] = Hygroscopicity: mass change after exposing to air moisture; format: physicochemical; conditions: for increase of the mass of the sample: after exposing to air moisture for 6 days
[2] = 1 n hcl

| Structure (SMILES) | increase of the mass of the sample ([1]; hemihydrate) | hygroscopicity (in words) ([1]; compared with the prior art substance) | solubility in 1 N HCI [2] | increase of the mass of the sample [1] |
| --- | --- | --- | --- | --- |
| CCCc1nc(C(C)(C)O)c(C(=O)OCc2oc(=O)oc2C)n1Cc1ccc(-c2ccccc2-c2nnn[nH]2)cc1 [olmesartan medoxomil hemihydrate] | did not increase | not hydroscopic | around 3 mg/ml | – |
| CCCc1nc(C(C)(C)O)c(C(=O)OCc2oc(=O)oc2C)n1Cc1ccc(-c2ccccc2-c2nnn[nH]2)cc1 [prior art substance, olmesartan medoxomil] | – | – | approximately 2 mg | 0,61% |
| CCCc1nc(C(C)(C)O)c(C(=O)OCc2oc(=O)oc2C)n1Cc1ccc(-c2ccccc2-c2nnn[nH]2)cc1 [partially crystalline or amorphous, olmesartan medoxomil] | – | – | up to 7 mg/ml | – |
